Source: patent US20230293460A1, “METHOD FOR TREATING DERMATITIS” (CHANG GUNG MEMORIAL HOSPITAL, LINKOU, priority 2020, published 2023)

System: dermatitis in the hands
Experiment: Example 4: middle-aged patient with dermatitis in the hands
Assay type: in vivo, human
Settings: given together: clobetasol ointment (0.025%) twice a day 21 days, desloratadine 5 mg once a day + hydroxyzine 25 mg twice a day 21 days, cyclosporine 100 mg twice a day 28 days; one patient

SMILES | scaling and chronic inflammation
OCCOCCN1CCN(C(c2ccccc2)c2ccc(Cl)cc2)CC1 (centres unmarked) [hydroxyzine] | did not improve
Clc1ccc2c(c1)CCc1cccnc1C2=C1CCNCC1 [desloratadine] | did not improve
